The source of these data is US10858367B2, “Compounds” (GLAXOSMITHKLINE INTELLECTUAL PROPERTY DEVELOPMENT LIMITED, priority 2017, dated 2020).

T1 sequence (Q5S007 whole entry): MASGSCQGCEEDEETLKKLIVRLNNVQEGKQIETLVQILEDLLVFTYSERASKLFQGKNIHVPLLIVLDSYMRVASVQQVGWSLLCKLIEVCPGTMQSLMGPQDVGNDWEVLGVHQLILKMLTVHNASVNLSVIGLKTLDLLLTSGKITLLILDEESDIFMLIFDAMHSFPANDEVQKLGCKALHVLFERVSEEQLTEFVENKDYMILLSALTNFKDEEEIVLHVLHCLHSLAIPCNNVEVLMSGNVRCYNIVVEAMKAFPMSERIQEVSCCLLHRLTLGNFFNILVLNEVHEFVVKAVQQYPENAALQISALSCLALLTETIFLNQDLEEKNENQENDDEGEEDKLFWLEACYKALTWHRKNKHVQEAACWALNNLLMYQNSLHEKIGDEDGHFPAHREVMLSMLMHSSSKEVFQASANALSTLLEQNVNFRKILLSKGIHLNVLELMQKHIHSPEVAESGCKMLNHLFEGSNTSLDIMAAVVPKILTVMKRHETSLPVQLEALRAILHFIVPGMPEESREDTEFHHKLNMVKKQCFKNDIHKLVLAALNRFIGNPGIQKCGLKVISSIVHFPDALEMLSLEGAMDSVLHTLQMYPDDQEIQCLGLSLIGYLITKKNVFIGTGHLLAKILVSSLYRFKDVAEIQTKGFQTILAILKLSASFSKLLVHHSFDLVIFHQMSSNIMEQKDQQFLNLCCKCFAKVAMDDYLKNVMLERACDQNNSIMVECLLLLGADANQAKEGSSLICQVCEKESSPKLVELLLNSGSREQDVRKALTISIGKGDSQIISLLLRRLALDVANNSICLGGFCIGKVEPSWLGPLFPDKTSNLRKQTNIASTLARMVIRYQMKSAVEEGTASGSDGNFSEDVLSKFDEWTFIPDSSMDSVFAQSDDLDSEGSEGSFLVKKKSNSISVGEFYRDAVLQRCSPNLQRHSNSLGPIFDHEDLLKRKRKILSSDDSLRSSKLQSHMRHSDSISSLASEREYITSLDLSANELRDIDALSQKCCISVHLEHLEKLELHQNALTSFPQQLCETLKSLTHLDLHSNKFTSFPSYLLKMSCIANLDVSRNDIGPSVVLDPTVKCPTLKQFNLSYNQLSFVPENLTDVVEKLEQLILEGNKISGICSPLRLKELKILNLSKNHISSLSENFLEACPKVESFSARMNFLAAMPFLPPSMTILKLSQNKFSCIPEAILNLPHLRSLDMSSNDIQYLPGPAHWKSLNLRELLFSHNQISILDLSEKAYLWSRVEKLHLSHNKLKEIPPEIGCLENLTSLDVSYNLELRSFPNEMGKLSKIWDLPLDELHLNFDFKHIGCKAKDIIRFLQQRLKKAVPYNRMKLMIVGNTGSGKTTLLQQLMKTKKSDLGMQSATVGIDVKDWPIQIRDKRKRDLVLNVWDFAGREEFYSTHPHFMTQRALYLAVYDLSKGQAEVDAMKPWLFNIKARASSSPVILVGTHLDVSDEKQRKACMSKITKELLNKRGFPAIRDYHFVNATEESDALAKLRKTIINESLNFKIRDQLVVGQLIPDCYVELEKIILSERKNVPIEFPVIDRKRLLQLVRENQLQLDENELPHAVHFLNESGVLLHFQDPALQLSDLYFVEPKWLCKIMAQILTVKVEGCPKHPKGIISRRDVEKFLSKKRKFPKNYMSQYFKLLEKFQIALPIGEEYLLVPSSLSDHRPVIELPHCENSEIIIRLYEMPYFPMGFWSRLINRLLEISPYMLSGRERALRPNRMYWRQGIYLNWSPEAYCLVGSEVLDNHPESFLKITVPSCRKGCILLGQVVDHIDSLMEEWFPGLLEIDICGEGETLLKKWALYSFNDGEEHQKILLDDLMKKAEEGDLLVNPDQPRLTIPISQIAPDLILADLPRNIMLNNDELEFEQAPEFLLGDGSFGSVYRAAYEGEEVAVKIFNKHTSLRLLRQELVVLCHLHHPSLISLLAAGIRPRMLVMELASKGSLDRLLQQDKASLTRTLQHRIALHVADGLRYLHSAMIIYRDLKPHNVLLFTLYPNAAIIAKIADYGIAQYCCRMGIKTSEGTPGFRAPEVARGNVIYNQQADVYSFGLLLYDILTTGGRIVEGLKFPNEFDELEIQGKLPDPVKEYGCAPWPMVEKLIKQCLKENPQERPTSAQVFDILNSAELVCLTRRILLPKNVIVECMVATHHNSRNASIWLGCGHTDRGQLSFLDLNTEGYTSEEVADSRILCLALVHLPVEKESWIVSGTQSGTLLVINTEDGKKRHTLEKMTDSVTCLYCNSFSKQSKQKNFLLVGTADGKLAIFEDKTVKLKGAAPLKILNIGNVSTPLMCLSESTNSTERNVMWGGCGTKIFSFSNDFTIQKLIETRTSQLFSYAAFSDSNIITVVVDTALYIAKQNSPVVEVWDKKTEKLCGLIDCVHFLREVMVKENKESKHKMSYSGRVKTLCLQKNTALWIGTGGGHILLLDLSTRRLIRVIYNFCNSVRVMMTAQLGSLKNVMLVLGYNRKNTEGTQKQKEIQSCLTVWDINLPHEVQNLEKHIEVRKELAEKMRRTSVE

This test concerns the target T1, LRRK2 Ser935 phosphorylation in SH-SY5Y cells over-expressing recombinant full length LRRK2 (Homo sapiens, UniProt Q5S007).
T1 construct: A BacMam virus expressing full length recombinant LRRK2 was purchased from Invitrogen; host or cells: SH-SY5Y human neuroblastoma cells transduced with BacMam LRRK2 virus
Kind of test: Recombinant cellular LRRK2 AlphaScreen assay. Type of test: cell-based. The conditions noted are these: human neuroblastoma SH-SY5Y cells, BacMam full length LRRK2, 60 minutes with compound, read-out: pIC50 in the recombinant cellular LRRK2 AlphaScreen assay (converted). Summed up:
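SH-SY5Y cells transduced with BacMam full-length human LRRK2 (MOI 50) for 24 h, then treated with compound (top final 10 μM) for 60 min at 37° C. Lysate pSer935 LRRK2 quantified by AlphaScreen using anti-pS935 and total-LRRK2 antibodies. Values from sigmoidal dose-response fit.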
A general note: In Alpha technology, singlet oxygen from a donor bead excites a nearby acceptor bead.
In the case of `COc1nc(N2C[C@H]3C[C@@H]2CO3)cc(-n2ncc3cc(Cl)c(C4CCN(C5CCOC5)CC4)cc32)n1` (single isomer, unassigned) [Example E67], the IC50 was at most 1 µM. The same measure for `Cc1nc(N2C[C@@H]3C[C@H]2CO3)cc(-n2ncc3cc(C)c(C4CCN(CCO)CC4F)cc32)n1` (single isomer, unassigned) [Example E21]: at most 1 µM; for `COc1nc(N2CC3CC2CO3)cc(-n2ncc3cc(C)c([C@H]4CC[C@](C)(O)CC4)cc32)n1` (single isomer, unassigned) [Example E12]: at most 1 µM; for `COc1nc(N2CC3CC2CO3)cc(-n2ncc3cc(C)c([C@H]4CC[C@@](C)(O)CC4)cc32)n1` (single isomer, unassigned) [Example E11]: at most 0.01 µM. `COCCN1CCC(c2cc3c(cnn3-c3cc(N4C[C@@H]5C[C@H]4CO5)nc(OC)n3)cc2C)CC1` [Example E36, (1S,4S)-5-(2-methoxy-6-(6-(1-(2-methoxyethyl)piperidin-4-yl)-5-methyl-1H-indazol-1-yl)pyrimidin-4-yl)-2-oxa-5-azabicyclo[2.2.1]heptane]: the IC50 is at most 1 µM. In the case of `COc1nc(N2C[C@@H]3C[C@H]2CO3)cc(-n2ncc3cc(C)c(C4CCN(CCO)CC4)cc32)n1` [Example E28, 2-(4-(1-(6-((1S,4S)-2-oxa-5-azabicyclo[2.2.1]heptan-5-yl)-2-methoxypyrimidin-4-yl)-5-methyl-1H-indazol-6-yl)piperidin-1-yl)ethanol] it was at most 1 µM. For the compound `Cc1nc(N2C[C@H]3C[C@@H]2CN3C2COC2)cc(-n2ncc3cc(C)c([C@H]4CC[C@@](C)(O)CC4)cc32)n1` [Example E29, Cis-1-methyl-4-(5-methyl-1-(2-methyl-6-((1R,4R)-5-(oxetan-3-yl)-2,5-diazabicyclo[2.2.1]heptan-2-yl)pyrimidin-4-yl)-1H-indazol-6-yl)cyclohexanol], the IC50 was at most 1 µM. With `COc1nc(N2C[C@@H]3C[C@H]2CO3)cc(-n2ncc3cc(C)c(C4CCN(C5COC5)CC4)cc32)n1` [Example E2, (1S,4S)-5-(2-methoxy-6-(5-methyl-6-(1-(oxetan-3-yl)piperidin-4-yl)-1H-indazol-1-yl)pyrimidin-4-yl)-2-oxa-5-azabicyclo[2.2.1]heptane], the IC50 is at most 1 µM. In the case of `Cc1nc(N2C[C@@H]3C[C@H]2CO3)cc(-n2ncc3cc(Cl)c(C4CCN(C5COC5)CC4)cc32)n1` [Example E26, (1S,4S)-5-(6-(5-chloro-6-(1-(oxetan-3-yl)piperidin-4-yl)-1H-indazol-1-yl)-2-methylpyrimidin-4-yl)-2-oxa-5-azabicyclo[2.2.1]heptane] it was at most 1 µM. For the compound `Cc1nc(N2C[C@H]3C[C@@H]2CO3)cc(-n2ncc3cc(C)c(C4CCN(C5CCOC5)CC4F)cc32)n1` (single isomer, unassigned) [Example E149], the IC50 is at most 1 µM. In the case of `COc1nc(N2C[C@H]3C[C@@H]2CO3)cc(-n2ncc3cc(C)c(C4CCC(N5CCOCC5)CC4)cc32)n1` (single isomer, unassigned) [Example E71] it was at most 1 µM; in that of `COc1nc(N2CC3CC2CO3)cc(-n2ncc3cc(C)c(C4CCN(C5CCOC5)CC4O)cc32)n1` (single isomer, unassigned) [Example E135], at most 1 µM.
